From PubChem BioAssay AID1343 (Sanford-Burnham Center for Chemical Genomics, 2008)
Active and inactive are the calls of the source.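 How the source made its calls: active means survival of 63% or more, 10 points above the level seen with tunicamycin given alone; inactive means the rest.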

What follows are compounds tested on CSM14.1 tunicamycin-induced death, ATP luminescence, 48 h (assay: protection against tunicamycin ER stress killing – cell-based, undifferentiated CSM14.1, ATP content, mechanism study for ER stress death inhibitor project, late-stage follow-up (AID 1343)). Settings: at 25 µM; hits give high values.
In the case of `COc1ccc(C2CC(=O)C3=C(C2)Nc2ccccc2NC3c2cccc(Br)c2)cc1OC` (stereo unspecified), the survival is reported as 64%. In the case of `CCCOc1ccc(C2Nc3ccccc3NC3=C2C(=O)CC(c2ccc(OC)c(OC)c2)C3)cc1` (stereo unspecified), the survival is reported as 74%. For `CC1(C)CC(=O)C2=C(C1)Nc1ccccc1NC2c1ccc(-c2ccccc2)cc1` (stereo unspecified), the survival was 77%. `COc1ccc(C2CC(=O)C3=C(C2)Nc2ccccc2NC3c2cccc(C(F)(F)F)c2)cc1OC` (stereo unspecified) was tested, and the survival was 65%. With `COc1ccc(C2CC(=O)C3=C(C2)Nc2ccccc2NC3c2ccccc2C(F)(F)F)cc1OC` (stereo unspecified) the survival was 60% (inactive). Work on `COc1ccc(C2CC(=O)C3=C(C2)Nc2ccccc2NC3c2cccc(Oc3ccccc3)c2)cc1OC` (stereo unspecified) yielded a survival of 63%. With `CCOc1cc(C2Nc3ccccc3NC3=C2C(=O)CC(c2ccc(OC)cc2)C3)cc(Cl)c1O` (stereo unspecified) the survival was 46% (inactive). With `COc1ccc(C2CC(=O)C3=C(C2)Nc2ccccc2NC3c2cc(C)ccc2C)cc1` (stereo unspecified) the survival was 57% (inactive). In the case of `O=C1CC(c2ccccc2)CC2=C1C(c1c(F)cccc1Cl)Nc1ccccc1N2` (stereo unspecified), the survival is reported as 52% (inactive). For `CSc1ccc(C2Nc3ccccc3NC3=C2C(=O)CC(c2ccccc2)C3)cc1` (stereo unspecified), the survival was 59% (inactive). `CCOc1cccc(C2Nc3ccccc3NC3=C2C(=O)CC(c2ccc(OC)cc2)C3)c1` (stereo unspecified) was tested, and the survival was 55% (inactive).
